Publication doi:10.1101/2024.08.19.608619, “Discovery of potent SARS-CoV-2 nsp3 macrodomain inhibitors uncovers lack of translation to cellular antiviral response” (bioRxiv, 2024)
Read-outs that look alike come from different tables or passages of the source.

Tests used:
SARS-CoV-2 nsp3-mac1 [1] = molecular target: T1, SARS-CoV-2 nsp3-mac1 (Severe acute respiratory syndrome coronavirus 2, UniProt P0DTD1); assay: biochemical; type: biochemical; conditions: SARS-CoV-2 nsp3 macrodomain TR-FRET single point
SARS-CoV-2 nsp3-mac1 [2] = molecular target: T1, SARS-CoV-2 nsp3-mac1; assay: biochemical; design: SARS-CoV-2 nsp3 macrodomain TR-FRET single point, per cent inhibition, n=2
LogD = conditions: pH 7.4
[3] = read-out: perc_inhibition_mean, batch_name=ASAP-0000467-001
[4] = read-out: perc_inhibition_mean, batch_name=ASAP-0000468-001
[5] = read-out: perc_inhibition_mean, batch_name=ASAP-0000469-001
[6] = read-out: perc_inhibition_mean, batch_name=ASAP-0000470-001
[7] = read-out: perc_inhibition_mean, batch_name=ASAP-0000471-001
[8] = read-out: perc_inhibition_mean, batch_name=ASAP-0000472-001
[9] = read-out: perc_inhibition_mean, batch_name=ASAP-0000473-001
[10] = read-out: perc_inhibition_mean, batch_name=ASAP-0000474-001
[11] = read-out: perc_inhibition_mean, batch_name=ASAP-0000475-001
[12] = read-out: perc_inhibition_mean, batch_name=ASAP-0000476-001
[13] = read-out: perc_inhibition_mean, batch_name=ASAP-0000477-001
[14] = read-out: perc_inhibition_mean, batch_name=ASAP-0000478-001
[15] = read-out: perc_inhibition_mean, batch_name=ASAP-0000479-001
[16] = read-out: perc_inhibition_mean, batch_name=ASAP-0000480-001
[17] = read-out: perc_inhibition_mean, batch_name=ASAP-0000481-001
[18] = read-out: perc_inhibition_mean, batch_name=ASAP-0000482-001

With `COc1ccccc1C[C@@H](Nc1ncnc2[nH]ccc12)C(C)C` [ASAP-0000467] the perc_inhibition_mean (SARS-CoV-2 nsp3-mac1 [1]; concentration 49.75 uM) was 31.716%, the perc_inhibition_mean (SARS-CoV-2 nsp3-mac1 [1]; concentration 99.5 uM) was 48.499% and the inhibition at 49.75 µM (SARS-CoV-2 nsp3-mac1 [2]; [3]) was 31.7%. For the same molecule, the inhibition at 99.5 µM (SARS-CoV-2 nsp3-mac1 [2]; [3]) was 48.5%.

Work on `Cc1nn(-c2ccccc2)c(C)c1[C@H]1COCCN1c1ncnc2[nH]ccc12` [ASAP-0000468] yielded a perc_inhibition_mean (SARS-CoV-2 nsp3-mac1 [1]; concentration 49.75 uM) of -0.042%, a perc_inhibition_mean (SARS-CoV-2 nsp3-mac1 [1]; concentration 99.5 uM) of -4.216% and an inhibition at 49.75 µM (SARS-CoV-2 nsp3-mac1 [2]; [4]) of -0.042%. For the same molecule, the inhibition at 99.5 µM (SARS-CoV-2 nsp3-mac1 [2]; [4]) was -4.22%.

In the case of `O=C(N[C@H](Cn1cnc2cc(F)c(F)cc21)C(=O)O)c1ncnc2[nH]ccc12` [ASAP-0000469], the perc_inhibition_mean (SARS-CoV-2 nsp3-mac1 [1]; concentration 49.75 uM) is reported as -2.035%, the perc_inhibition_mean (SARS-CoV-2 nsp3-mac1 [1]; concentration 99.5 uM) is reported as 8.395% and the inhibition at 49.75 µM (SARS-CoV-2 nsp3-mac1 [2]; [5]) is reported as -2.04%. For the same molecule, the inhibition at 99.5 µM (SARS-CoV-2 nsp3-mac1 [2]; [5]) was 8.39%.

`C[C@@H](Nc1ncnc2[nH]ccc12)c1cnn(Cc2ccccc2)c1` [ASAP-0000470] gave a perc_inhibition_mean (SARS-CoV-2 nsp3-mac1 [1]; concentration 49.75 uM) of -4.105%, a perc_inhibition_mean (SARS-CoV-2 nsp3-mac1 [1]; concentration 99.5 uM) of 3.18% and an inhibition at 49.75 µM (SARS-CoV-2 nsp3-mac1 [2]; [6]) of -4.11%. It also gave an inhibition at 99.5 µM (SARS-CoV-2 nsp3-mac1 [2]; [6]) of 3.18%.

`CC(C)[C@@H](Nc1ncnc2[nH]ccc12)c1nc2ccccc2[nH]1` [ASAP-0000471] showed a perc_inhibition_mean (SARS-CoV-2 nsp3-mac1 [1]; concentration 49.75 uM) of 37.305%, a perc_inhibition_mean (SARS-CoV-2 nsp3-mac1 [1]; concentration 99.5 uM) of 52.508% and an inhibition at 49.75 µM (SARS-CoV-2 nsp3-mac1 [2]; [7]) of 37.3%. The inhibition at 99.5 µM (SARS-CoV-2 nsp3-mac1 [2]; [7]) was 52.5%.

For `c1nc(N[C@@H]2CCCc3c2cnn3C2CCCC2)c2cc[nH]c2n1` [ASAP-0000472], the perc_inhibition_mean (SARS-CoV-2 nsp3-mac1 [1]; concentration 49.75 uM) was 0.884%, the perc_inhibition_mean (SARS-CoV-2 nsp3-mac1 [1]; concentration 99.5 uM) was 14.273% and the inhibition at 49.75 µM (SARS-CoV-2 nsp3-mac1 [2]; [8]) was 0.884%. The inhibition at 99.5 µM (SARS-CoV-2 nsp3-mac1 [2]; [8]) was 14.3%.

`C[C@@H](Nc1ncnc2[nH]ccc12)c1cnn(CC2CCC2)c1` [ASAP-0000473] gave a perc_inhibition_mean (SARS-CoV-2 nsp3-mac1 [1]; concentration 49.75 uM) of -0.451%, a perc_inhibition_mean (SARS-CoV-2 nsp3-mac1 [1]; concentration 99.5 uM) of 4.9% and an inhibition at 49.75 µM (SARS-CoV-2 nsp3-mac1 [2]; [9]) of -0.451%. For the same molecule, the inhibition at 99.5 µM (SARS-CoV-2 nsp3-mac1 [2]; [9]) was 4.9%.

In the case of `Cn1cc([C@H]2CCCCN2c2ncnc3[nH]ccc23)cn1` [ASAP-0000474], the perc_inhibition_mean (SARS-CoV-2 nsp3-mac1 [1]; concentration 49.75 uM) is reported as 6.392%, the perc_inhibition_mean (SARS-CoV-2 nsp3-mac1 [1]; concentration 99.5 uM) is reported as 8.316% and the inhibition at 49.75 µM (SARS-CoV-2 nsp3-mac1 [2]; [10]) is reported as 6.39%. For the same molecule, the inhibition at 99.5 µM (SARS-CoV-2 nsp3-mac1 [2]; [10]) was 8.32%.

`CC(C)[C@@H](CCN(C)C(=O)c1cc2c(s1)CC[C@H](C)C2)Nc1ncnc2[nH]ccc12` [ASAP-0000475] gave a perc_inhibition_mean (SARS-CoV-2 nsp3-mac1 [1]; concentration 49.75 uM) of -9.684%, a perc_inhibition_mean (SARS-CoV-2 nsp3-mac1 [1]; concentration 99.5 uM) of -29.716% and an inhibition at 49.75 µM (SARS-CoV-2 nsp3-mac1 [2]; [11]) of -9.68%. It also gave an inhibition at 99.5 µM (SARS-CoV-2 nsp3-mac1 [2]; [11]) of -29.7%.

For `Cc1c([C@@H](C)Nc2ncnc3[nH]ccc23)cnn1-c1ccccc1` [ASAP-0000476], the perc_inhibition_mean (SARS-CoV-2 nsp3-mac1 [1]; concentration 49.75 uM) was 28.129%, the perc_inhibition_mean (SARS-CoV-2 nsp3-mac1 [1]; concentration 99.5 uM) was 41.664% and the inhibition at 49.75 µM (SARS-CoV-2 nsp3-mac1 [2]; [12]) was 28.1%. For the same molecule, the inhibition at 99.5 µM (SARS-CoV-2 nsp3-mac1 [2]; [12]) was 41.7%.

In the case of `CC(C)[C@H]1N(c2ncnc3[nH]ccc23)CC12CCOCC2` [ASAP-0000477], the perc_inhibition_mean (SARS-CoV-2 nsp3-mac1 [1]; concentration 49.75 uM) is reported as 27.65%, the perc_inhibition_mean (SARS-CoV-2 nsp3-mac1 [1]; concentration 99.5 uM) is reported as 47.993% and the inhibition at 49.75 µM (SARS-CoV-2 nsp3-mac1 [2]; [13]) is reported as 27.6%. For the same molecule, the inhibition at 99.5 µM (SARS-CoV-2 nsp3-mac1 [2]; [13]) was 48%.

`CC(C)Cn1cc([C@H]2N(c3ncnc4[nH]ccc34)CC23CCOCC3)cn1` [ASAP-0000478] gave a perc_inhibition_mean (SARS-CoV-2 nsp3-mac1 [1]; concentration 49.75 uM) of -0.591%, a perc_inhibition_mean (SARS-CoV-2 nsp3-mac1 [1]; concentration 99.5 uM) of -4.664% and an inhibition at 49.75 µM (SARS-CoV-2 nsp3-mac1 [2]; [14]) of -0.591%. For the same molecule, the inhibition at 99.5 µM (SARS-CoV-2 nsp3-mac1 [2]; [14]) was -4.66%.

`CC(C)[C@@H]1C(=O)NCCN1c1ncnc2[nH]ccc12` [ASAP-0000479] gave a perc_inhibition_mean (SARS-CoV-2 nsp3-mac1 [1]; concentration 49.75 uM) of 61.35%, a perc_inhibition_mean (SARS-CoV-2 nsp3-mac1 [1]; concentration 99.5 uM) of 80.665% and an inhibition at 49.75 µM (SARS-CoV-2 nsp3-mac1 [2]; [15]) of 61.4%. For the same molecule, the inhibition at 99.5 µM (SARS-CoV-2 nsp3-mac1 [2]; [15]) was 80.7%.

`CC(C)[C@@H](CO)[C@@H](Nc1ncnc2[nH]ccc12)C(C)C` [ASAP-0000480] gave a perc_inhibition_mean (SARS-CoV-2 nsp3-mac1 [1]; concentration 49.75 uM) of 6.651%, a perc_inhibition_mean (SARS-CoV-2 nsp3-mac1 [1]; concentration 99.5 uM) of 13.057% and an inhibition at 49.75 µM (SARS-CoV-2 nsp3-mac1 [2]; [16]) of 6.65%. It also gave an inhibition at 99.5 µM (SARS-CoV-2 nsp3-mac1 [2]; [16]) of 13.1%.

In the case of `CC(C)[C@@H](CCN(C)C(=O)C1CCc2ccccc2CC1)Nc1ncnc2[nH]ccc12` [ASAP-0000481], the perc_inhibition_mean (SARS-CoV-2 nsp3-mac1 [1]; concentration 49.75 uM) is reported as -5.62%, the perc_inhibition_mean (SARS-CoV-2 nsp3-mac1 [1]; concentration 99.5 uM) is reported as -10.916% and the inhibition at 49.75 µM (SARS-CoV-2 nsp3-mac1 [2]; [17]) is reported as -5.62%. The inhibition at 99.5 µM (SARS-CoV-2 nsp3-mac1 [2]; [17]) was -10.9%.

In the case of `CC(C)[C@@H](Nc1ncnc2[nH]ccc12)C(=O)N(C)Cc1nnc2n1CCC2` [ASAP-0000482], the perc_inhibition_mean (SARS-CoV-2 nsp3-mac1 [1]; concentration 49.75 uM) is reported as -8.89%, the perc_inhibition_mean (SARS-CoV-2 nsp3-mac1 [1]; concentration 99.5 uM) is reported as -6.138% and the inhibition at 49.75 µM (SARS-CoV-2 nsp3-mac1 [2]; [18]) is reported as -8.89%. It also gave an inhibition at 99.5 µM (SARS-CoV-2 nsp3-mac1 [2]; [18]) of -6.14%.

`CC(C)C(Nc1ncnc2[nH]ccc12)c1ccc2c(n1)OCCO2` (stereo not drawn) [ASAP-0008270] gave a logd (LogD) of 2.8.

In the case of `CC(C)[C@@H](Nc1ncnc2[nH]ccc12)c1ccc2c(c1)OCCO2` [ASAP-0008279], the logd (LogD; In vitro LogD) is reported as 3.0.
